Laboratory results published in publication doi:10.1101/2023.10.20.563248v1 (biorxiv, 2023).

Experiments:
Settings in all cases: 1 µM; inhibitor
LKB1/MO25a/STRADa = LKB1/MO25a/STRADa (Homo sapiens, UniProt Q15831)
DCAMKL2 = DCAMKL2 (Homo sapiens, UniProt Q8N568)
GSG2 = GSG2 (Homo sapiens, UniProt Q8TF76)
PAK7 = PAK7 (Homo sapiens, UniProt Q9P286)
CDK6/CycD3 = CDK6/CycD3 (Homo sapiens, UniProt Q00534)
RPS6KA3 = RPS6KA3 (Homo sapiens, UniProt P51812)
PAK3 = PAK3 (Homo sapiens, UniProt O75914)
RIPK2 = RIPK2 (Homo sapiens, UniProt O43353)
GRK2 = GRK2 (Homo sapiens, UniProt P25098)
FER = FER (Homo sapiens, UniProt P16591)
NEK9 = NEK9 (Homo sapiens, UniProt Q8TD19)
EPHA7 = EPHA7 (Homo sapiens, UniProt Q15375)
VRK1 = VRK1 (Homo sapiens, UniProt Q99986)
CDK17 = CDK17 (Homo sapiens, UniProt Q00537)
SIK2 = SIK2 (Homo sapiens, UniProt Q9H0K1)
CK1g1 = CK1g1 (Homo sapiens, UniProt Q9HCP0)
MEKK3 = MEKK3 (Homo sapiens, UniProt Q99759)
BTK = BTK (Homo sapiens, UniProt Q06187)
WNK2 = WNK2 (Homo sapiens, UniProt Q9Y3S1)
ERBB2 = ERBB2 (Homo sapiens, UniProt P04626)
SGK3 = SGK3 (Homo sapiens, UniProt Q96BR1)
EPHA1 = EPHA1 (Homo sapiens, UniProt P21709)
LYN = LYN (Homo sapiens, UniProt P07948)
CAMK4 = CAMK4 (Homo sapiens, UniProt Q16566)
ZAK = ZAK (Homo sapiens, UniProt Q9NYL2)
HIPK4 = HIPK4 (Homo sapiens, UniProt Q8NE63)
p38b = p38b (Homo sapiens, UniProt Q15759)
ERK5 = ERK5 (Homo sapiens, UniProt Q13164)
PDGFRb = PDGFRb (Homo sapiens, UniProt P09619)
MAP3K11 = MAP3K11 (Homo sapiens, UniProt Q16584)
PLK3 = PLK3 (Homo sapiens, UniProt Q9H4B4)

Sequence of p38b (Q15759 whole entry): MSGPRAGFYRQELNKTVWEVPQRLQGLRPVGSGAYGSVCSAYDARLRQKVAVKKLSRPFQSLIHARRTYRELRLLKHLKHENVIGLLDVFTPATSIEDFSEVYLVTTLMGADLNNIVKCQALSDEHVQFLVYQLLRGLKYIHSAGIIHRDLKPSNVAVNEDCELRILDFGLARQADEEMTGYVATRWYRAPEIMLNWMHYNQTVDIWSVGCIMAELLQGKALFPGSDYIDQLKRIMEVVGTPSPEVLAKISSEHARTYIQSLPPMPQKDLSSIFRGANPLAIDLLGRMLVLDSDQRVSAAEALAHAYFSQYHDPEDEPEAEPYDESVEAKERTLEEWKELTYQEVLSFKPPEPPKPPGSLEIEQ
Sequence of PDGFRb (P09619 whole entry): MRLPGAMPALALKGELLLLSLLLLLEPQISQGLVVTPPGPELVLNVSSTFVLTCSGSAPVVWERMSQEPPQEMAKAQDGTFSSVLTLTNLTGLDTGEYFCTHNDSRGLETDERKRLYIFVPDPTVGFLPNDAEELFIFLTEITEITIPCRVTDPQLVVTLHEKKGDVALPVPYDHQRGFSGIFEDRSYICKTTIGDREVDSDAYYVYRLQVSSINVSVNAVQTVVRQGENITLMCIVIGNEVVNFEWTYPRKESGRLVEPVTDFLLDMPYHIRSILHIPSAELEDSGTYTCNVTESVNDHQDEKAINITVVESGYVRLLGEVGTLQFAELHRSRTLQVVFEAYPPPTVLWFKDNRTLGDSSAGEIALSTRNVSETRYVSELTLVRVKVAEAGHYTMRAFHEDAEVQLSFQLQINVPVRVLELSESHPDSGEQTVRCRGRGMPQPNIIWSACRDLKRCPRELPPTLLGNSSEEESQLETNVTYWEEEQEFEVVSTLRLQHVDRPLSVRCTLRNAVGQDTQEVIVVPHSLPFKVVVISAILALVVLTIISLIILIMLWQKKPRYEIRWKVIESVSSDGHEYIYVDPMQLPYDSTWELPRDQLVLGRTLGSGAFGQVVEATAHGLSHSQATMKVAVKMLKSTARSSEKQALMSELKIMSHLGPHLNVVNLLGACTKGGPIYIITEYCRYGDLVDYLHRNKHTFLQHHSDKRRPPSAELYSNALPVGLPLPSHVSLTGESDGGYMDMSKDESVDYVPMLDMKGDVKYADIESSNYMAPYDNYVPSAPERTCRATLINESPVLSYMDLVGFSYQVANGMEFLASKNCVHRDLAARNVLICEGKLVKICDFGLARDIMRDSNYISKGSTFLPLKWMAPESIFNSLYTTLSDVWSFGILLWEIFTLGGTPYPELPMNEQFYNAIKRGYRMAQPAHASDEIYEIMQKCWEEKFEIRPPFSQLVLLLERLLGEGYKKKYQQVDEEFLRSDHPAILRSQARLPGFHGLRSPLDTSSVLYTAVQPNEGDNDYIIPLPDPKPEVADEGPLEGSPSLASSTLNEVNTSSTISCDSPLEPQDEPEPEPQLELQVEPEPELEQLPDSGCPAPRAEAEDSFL
Sequence of WNK2 (Q9Y3S1 whole entry): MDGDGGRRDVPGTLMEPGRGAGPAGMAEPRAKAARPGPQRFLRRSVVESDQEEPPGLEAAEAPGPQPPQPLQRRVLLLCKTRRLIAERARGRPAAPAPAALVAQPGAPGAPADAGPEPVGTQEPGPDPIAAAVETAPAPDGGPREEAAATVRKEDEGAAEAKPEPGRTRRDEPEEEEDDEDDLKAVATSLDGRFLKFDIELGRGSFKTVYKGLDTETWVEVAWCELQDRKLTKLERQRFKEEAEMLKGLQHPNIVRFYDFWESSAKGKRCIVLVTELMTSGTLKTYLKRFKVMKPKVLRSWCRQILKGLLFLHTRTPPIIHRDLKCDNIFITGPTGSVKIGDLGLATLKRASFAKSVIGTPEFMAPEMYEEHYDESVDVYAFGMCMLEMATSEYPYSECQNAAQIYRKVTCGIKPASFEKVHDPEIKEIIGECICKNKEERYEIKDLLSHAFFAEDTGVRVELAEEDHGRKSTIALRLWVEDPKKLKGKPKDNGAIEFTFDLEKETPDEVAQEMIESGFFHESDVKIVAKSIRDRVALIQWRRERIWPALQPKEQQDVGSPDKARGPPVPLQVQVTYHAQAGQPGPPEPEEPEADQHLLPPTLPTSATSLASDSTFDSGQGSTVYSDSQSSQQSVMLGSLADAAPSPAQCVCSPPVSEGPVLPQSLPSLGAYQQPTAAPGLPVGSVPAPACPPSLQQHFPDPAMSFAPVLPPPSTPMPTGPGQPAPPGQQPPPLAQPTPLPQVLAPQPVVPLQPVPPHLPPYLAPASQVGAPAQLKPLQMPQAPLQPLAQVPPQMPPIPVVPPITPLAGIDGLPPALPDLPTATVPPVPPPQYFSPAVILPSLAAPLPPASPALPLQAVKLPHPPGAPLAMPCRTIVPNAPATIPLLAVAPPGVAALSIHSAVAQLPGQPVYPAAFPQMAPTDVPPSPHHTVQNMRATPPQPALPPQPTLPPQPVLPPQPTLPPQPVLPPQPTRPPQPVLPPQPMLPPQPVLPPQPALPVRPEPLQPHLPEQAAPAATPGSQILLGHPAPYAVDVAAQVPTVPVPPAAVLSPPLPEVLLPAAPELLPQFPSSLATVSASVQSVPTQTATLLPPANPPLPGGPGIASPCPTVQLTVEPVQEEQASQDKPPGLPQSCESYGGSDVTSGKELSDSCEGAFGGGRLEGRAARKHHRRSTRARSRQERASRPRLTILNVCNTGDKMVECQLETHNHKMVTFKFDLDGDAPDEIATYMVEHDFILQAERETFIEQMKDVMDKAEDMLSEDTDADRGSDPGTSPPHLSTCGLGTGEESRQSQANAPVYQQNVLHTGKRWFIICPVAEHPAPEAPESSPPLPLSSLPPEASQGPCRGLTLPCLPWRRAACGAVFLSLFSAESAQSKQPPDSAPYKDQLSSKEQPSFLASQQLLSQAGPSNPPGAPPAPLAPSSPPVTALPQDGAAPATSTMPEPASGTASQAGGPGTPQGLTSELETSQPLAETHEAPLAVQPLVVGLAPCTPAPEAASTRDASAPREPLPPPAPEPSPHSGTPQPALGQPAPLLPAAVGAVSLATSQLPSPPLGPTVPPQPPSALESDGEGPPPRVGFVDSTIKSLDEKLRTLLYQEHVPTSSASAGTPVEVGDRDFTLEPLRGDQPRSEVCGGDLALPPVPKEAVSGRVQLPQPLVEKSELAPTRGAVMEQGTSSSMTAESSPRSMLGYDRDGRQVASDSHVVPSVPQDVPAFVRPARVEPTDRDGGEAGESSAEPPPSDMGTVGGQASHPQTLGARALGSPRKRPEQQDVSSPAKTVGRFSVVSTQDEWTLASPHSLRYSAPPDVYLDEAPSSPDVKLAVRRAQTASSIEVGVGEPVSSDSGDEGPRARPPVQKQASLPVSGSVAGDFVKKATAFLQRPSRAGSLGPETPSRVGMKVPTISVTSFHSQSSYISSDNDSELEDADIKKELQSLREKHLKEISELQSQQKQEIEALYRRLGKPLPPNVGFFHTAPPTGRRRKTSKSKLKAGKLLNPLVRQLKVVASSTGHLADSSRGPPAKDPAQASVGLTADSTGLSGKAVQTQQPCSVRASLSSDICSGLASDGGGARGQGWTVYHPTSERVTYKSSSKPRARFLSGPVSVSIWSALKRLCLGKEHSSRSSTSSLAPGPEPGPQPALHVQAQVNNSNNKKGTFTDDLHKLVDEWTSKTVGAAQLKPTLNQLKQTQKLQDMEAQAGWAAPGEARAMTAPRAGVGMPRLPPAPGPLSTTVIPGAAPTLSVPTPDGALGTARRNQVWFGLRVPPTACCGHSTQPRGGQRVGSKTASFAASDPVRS
Sequence of PAK7 (Q9P286 whole entry): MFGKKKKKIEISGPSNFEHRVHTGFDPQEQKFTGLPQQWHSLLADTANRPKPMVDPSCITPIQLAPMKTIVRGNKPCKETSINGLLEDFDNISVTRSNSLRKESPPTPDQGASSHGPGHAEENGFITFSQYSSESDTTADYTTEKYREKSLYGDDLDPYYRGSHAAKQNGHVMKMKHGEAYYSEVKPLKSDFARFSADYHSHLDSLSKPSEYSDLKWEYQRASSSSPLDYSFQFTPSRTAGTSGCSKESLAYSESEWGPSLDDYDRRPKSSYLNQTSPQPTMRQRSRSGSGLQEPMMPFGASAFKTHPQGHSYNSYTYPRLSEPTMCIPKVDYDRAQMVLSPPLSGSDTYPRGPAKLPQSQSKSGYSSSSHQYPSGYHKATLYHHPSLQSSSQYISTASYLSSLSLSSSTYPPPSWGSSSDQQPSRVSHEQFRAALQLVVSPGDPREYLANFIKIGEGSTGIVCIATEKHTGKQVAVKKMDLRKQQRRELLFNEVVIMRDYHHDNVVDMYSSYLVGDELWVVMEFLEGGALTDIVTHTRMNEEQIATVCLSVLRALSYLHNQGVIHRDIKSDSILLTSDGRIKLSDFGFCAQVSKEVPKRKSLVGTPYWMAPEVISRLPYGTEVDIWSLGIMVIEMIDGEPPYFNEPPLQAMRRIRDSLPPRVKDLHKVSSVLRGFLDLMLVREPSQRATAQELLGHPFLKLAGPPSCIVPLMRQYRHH
Sequence of CDK6/CycD3 (Q00534 whole entry): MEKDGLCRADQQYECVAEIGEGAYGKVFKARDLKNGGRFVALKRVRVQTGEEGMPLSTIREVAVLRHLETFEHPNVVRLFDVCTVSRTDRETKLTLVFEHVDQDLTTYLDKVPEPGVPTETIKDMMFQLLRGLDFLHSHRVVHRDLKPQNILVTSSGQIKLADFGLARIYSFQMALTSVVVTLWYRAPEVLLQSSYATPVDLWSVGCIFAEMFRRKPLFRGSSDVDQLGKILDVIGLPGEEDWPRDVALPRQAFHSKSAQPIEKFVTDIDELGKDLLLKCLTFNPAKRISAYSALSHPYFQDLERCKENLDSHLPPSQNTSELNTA
Sequence of CDK6/CycD3 (P30281 whole entry partner): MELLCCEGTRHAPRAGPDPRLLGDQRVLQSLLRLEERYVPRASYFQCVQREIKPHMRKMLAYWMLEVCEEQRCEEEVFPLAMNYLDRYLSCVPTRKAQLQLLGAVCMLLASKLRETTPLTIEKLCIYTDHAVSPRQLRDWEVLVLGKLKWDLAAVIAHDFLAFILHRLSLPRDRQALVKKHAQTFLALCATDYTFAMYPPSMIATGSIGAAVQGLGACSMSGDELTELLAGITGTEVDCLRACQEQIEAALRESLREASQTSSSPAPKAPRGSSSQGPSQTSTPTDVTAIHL

## O=C1NCCCCCNc2nc(c3ccccc3n2)Nc2cc1[nH]n2 [21c, (Z)-3^1H-2,5,11-triaza-1(4,2)-quinazolina-3(3,5)-pyrazolacycloundecaphan-4-one]
LKB1/MO25a/STRADa
  21c Remaining activity, percent of control [%]: 105.1%
DCAMKL2
  21c Remaining activity, percent of control [%]: 99.3%
GSG2
  21c Remaining activity, percent of control [%]: 108.1%
PAK7
  21c Remaining activity, percent of control [%]: 87.1%
CDK6/CycD3
  21c Remaining activity, percent of control [%]: 85.3%
RPS6KA3
  21c Remaining activity, percent of control [%]: 87.3%
PAK3
  21c Remaining activity, percent of control [%]: 103.3%
RIPK2
  21c Remaining activity, percent of control [%]: 105.0%
GRK2
  21c Remaining activity, percent of control [%]: 96.7%
FER
  21c Remaining activity, percent of control [%]: 101.7%
NEK9
  21c Remaining activity, percent of control [%]: 109.8%
EPHA7
  21c Remaining activity, percent of control [%]: 103.7%
VRK1
  21c Remaining activity, percent of control [%]: 91.5%
CDK17
  21c Remaining activity, percent of control [%]: 70.9%
SIK2
  21c Remaining activity, percent of control [%]: 97.5%
CK1g1
  21c Remaining activity, percent of control [%]: 102.2%
MEKK3
  21c Remaining activity, percent of control [%]: 105.8%
BTK
  21c Remaining activity, percent of control [%]: 96.6%
WNK2
  21c Remaining activity, percent of control [%]: 94.8%
ERBB2
  21c Remaining activity, percent of control [%]: 94.1%
SGK3
  21c Remaining activity, percent of control [%]: 96.1%
EPHA1
  21c Remaining activity, percent of control [%]: 99.3%
LYN
  21c Remaining activity, percent of control [%]: 139.3%
CAMK4
  21c Remaining activity, percent of control [%]: 98.0%
ZAK
  21c Remaining activity, percent of control [%]: 82.9%
HIPK4
  21c Remaining activity, percent of control [%]: 115.2%
p38b
  21c Remaining activity, percent of control [%]: 92.9%
ERK5
  21c Remaining activity, percent of control [%]: 93.4%
PDGFRb
  21c Remaining activity, percent of control [%]: 71.2%
MAP3K11
  21c Remaining activity, percent of control [%]: 45.8%
PLK3
  21c Remaining activity, percent of control [%]: 102.7%
